US4990613A, “(1R,5S,6S)-2-[(6,7-dih ydro-5H-pyrazolo[1,2-a][1,2,4]triazolium-6-yl)]thio-6-[R-1-hydroxyethyl]- 1-methyl-carbapenem-3-carboxylate and intermediate therefor” (Lederle (Japan), Ltd., priority 1987, dated 1991)

Key:
[1] = over a period of ten days
[2] = system: Swine Kidney Dehydropeptidase-I (DHP-I); assay: Hydrolysis activity against DHP-I enzyme substrate by late assay; assay type: in vitro ADME; conditions: final substrate concentration 100 μM, 10 minutes, pH 7.1
Protocol: The swine kidney (8 kg) was homogenized and an enzyme protein was allowed to precipitate. After a connective lipid was removed with acetone, the resultant material was made soluble by treatment with butanol and purified in the order by the ammonium sulfate fraction method, thereby producing DPH-I enzyme from a 75% ammonium sulfate fraction.
The DHP-I enzyme was then adjusted to give an enzyme concentration of 25 mg/10 ml (phosphate buffer, pH 7.1), and divided into 1 ml portions. The portions were frozen and stored at -40° C. or less until use.
As control compounds were employed glycyl dehydrophenylalanine (Gl-dh-Ph) and imipenem, and they were adjusted in situ each to give the concentration of 177 μM with the same sodium phosphate buffer solution.
To 1.2 ml of a 50 mM sodium phosphate buffer solution (substrate) containing 177 μM of each of Gh-dh-Ph and imipenem as the control compounds was added 0.2 ml of the DHP-I enzyme solution (25 mg/10 ml) prepared above in the final substrate concentration of 100 μM. The solution was then incubated at […] for 10 minutes. An initial velocity of hydrolysis of the substrate was measured from a decrease in absorbency at a particular λmax of each of the substrates.
A blank test was conducted in substantially the same manner as above by adding 0.2 ml of the sodium phosphate buffer solution (pH 7.1) to 1.2 ml of the above substrate.

[3] = system: Bacillus subtilis ATCC6633; assay: Antibacterial test, agar plate dilution method; conditions: 37° C., 18 hours, MH agar
[4] = system: Enterobacter aerougenes ATCC13048; assay: Antibacterial test, agar plate dilution method; conditions: 37° C., 18 hours, MH agar
[5] = system: Proteus mirabilis IFO3849; assay: Antibacterial test, agar plate dilution method; conditions: 37° C., 18 hours, MH agar
[6] = system: Pseudomonas aeruginosa NCTC 10490; assay: Antibacterial test, agar plate dilution method; conditions: 37° C., 18 hours, MH agar
[7] = system: Escherichia coli NIHJ JC-2; assay: Antibacterial test, agar plate dilution method; conditions: 37° C., 18 hours, MH agar
[8] = system: Salmonella paratyphi 1015; assay: Antibacterial test, agar plate dilution method; assay type: cell-based; conditions: 37° C., 18 hours, MH agar
[9] = system: Salmonella enteritidis G14; assay: Antibacterial test, agar plate dilution method; conditions: 37° C., 18 hours, MH agar
[10] = system: Pseudomonas aeruginosa GN 918; assay: Antibacterial activity against clinically isolated β-lactamase producing strains; assay type: cell-based; conditions: cephalosporinase producing strain, 18 to 20 hours
Protocol: (§1) A solution of a cephalosporinase producing strain stored by Episome Research Institute, which was prepared by incubating the strain in a sensitivity test broth (STB; product of Nissui K.K.) for 18 hours, was diluted with a fresh STB solution to contain 10^5 cells per milliliter and the diluted solution was then inoculated as spots with a microplanter on a sensitivity disk agar-N (SDA; product of Nissui K.K.) containing a test compound. The disk agar was then incubated for 18 to 20 hours. A minimum inhibitory concentration was determined as a minimum concentration in which the test microorganism had no longer grown after a 18 to 20 hour incubation.

[11] = system: Serratia marcescens GN 10857; assay: as above; assay type: cell-based; conditions: cephalosporinase producing strain, 18 to 20 hours
Protocol: as §1

[12] = system: Serratia marcescens L-65; assay: as above; assay type: cell-based; conditions: cephalosporinase producing strain, 18 to 20 hours
Protocol: as §1

[13] = system: Escherichia coli GN 5482; assay: as above; assay type: cell-based; conditions: cephalosporinase producing strain, 18 to 20 hours
Protocol: as §1

[14] = system: Providencia rettgeri GN 5284; assay: as above; assay type: cell-based; conditions: cephalosporinase producing strain, 18 to 20 hours
Protocol: as §1

[15] = system: Enterobacter cloacae GN 7467; assay: as above; assay type: cell-based; conditions: cephalosporinase producing strain, 18 to 20 hours
Protocol: as §1

[16] = system: Proteus morganii GN 5375; assay: as above; assay type: cell-based; conditions: cephalosporinase producing strain, 18 to 20 hours
Protocol: as §1

[17] = system: Pseudomonas aeruginosa GN 10362; assay: as above; assay type: cell-based; conditions: cephalosporinase producing strain, 18 to 20 hours
Protocol: as §1

[18] = system: Pseudomonas cepacia GN 11164; assay: as above; assay type: cell-based; conditions: cephalosporinase producing strain, 18 to 20 hours
Protocol: as §1

[19] = system: Citrobactor freundii GN 7391; assay: as above; assay type: cell-based; conditions: cephalosporinase producing strain, 18 to 20 hours
Protocol: as §1

[20] = system: Proteus vulgaris GN 76; assay: as above; assay type: cell-based; conditions: cephalosporinase producing strain, 18 to 20 hours
Protocol: as §1

[21] = system: Proteus vulgaris GN 4413; assay: as above; assay type: cell-based; conditions: cephalosporinase producing strain, 18 to 20 hours
Protocol: as §1

[22] = system: Pseudomonas aeruginosa GN 10367; assay: as above; assay type: cell-based; conditions: cephalosporinase producing strain, 18 to 20 hours
Protocol: as §1

[23] = system: Citrobactor freundii GN 346; assay: as above; assay type: cell-based; conditions: cephalosporinase producing strain, 18 to 20 hours
Protocol: as §1

[24] = system: Enterobacter cloacae GN 5797; assay: as above; assay type: cell-based; conditions: cephalosporinase producing strain, 18 to 20 hours
Protocol: as §1

[25] = system: Enterobacter cloacae GN 7471; assay: as above; assay type: cell-based; conditions: cephalosporinase producing strain, 18 to 20 hours
Protocol: as §1

[26] = system: Proteus vulgaris GN 7919; assay: as above; assay type: cell-based; conditions: cephalosporinase producing strain, 18 to 20 hours
Protocol: as §1

[27] = system: Proteus morganii GN 5407; assay: as above; assay type: cell-based; conditions: cephalosporinase producing strain, 18 to 20 hours
Protocol: as §1

[28] = system: Escherichia coli No. 1501; assay: as above; assay type: cell-based; conditions: cephalosporinase producing strain, 18 to 20 hours
Protocol: as §1

[29] = system: Providencia rettgeri GN 4762; assay: as above; assay type: cell-based; conditions: cephalosporinase producing strain, 18 to 20 hours
Protocol: as §1

[30] = system: Providencia rettgeri GN 4430; assay: as above; assay type: cell-based; conditions: cephalosporinase producing strain, 18 to 20 hours
Protocol: as §1

[31] = system: Serratia marcescens L-82; assay: as above; assay type: cell-based; conditions: cephalosporinase producing strain, 18 to 20 hours
Protocol: as §1

[32] = system: Escherichia coli No. 96; assay: as above; assay type: cell-based; conditions: cephalosporinase producing strain, 18 to 20 hours
Protocol: as §1

[33] = system: Proteus morganii GN 5307; assay: as above; assay type: cell-based; conditions: cephalosporinase producing strain, 18 to 20 hours
Protocol: as §1

[34] = system: Klebsiella oxytoca GN 10650; assay: as above; assay type: cell-based; conditions: cephalosporinase producing strain, 18 to 20 hours
Protocol: as §1

[35] = system: Micrococcus luteus ATCC9341; assay: Antibacterial test, agar plate dilution method; conditions: 37° C., 18 hours, MH agar
[36] = system: Salmonella typhimurium IID971; assay: Antibacterial test, agar plate dilution method; conditions: 37° C., 18 hours, MH agar
[37] = system: Salmonella schottmuelleri 8006; assay: Antibacterial test, agar plate dilution method; conditions: 37° C., 18 hours, MH agar
[38] = system: Proteus vulgaris OX-19; assay: Antibacterial test, agar plate dilution method; conditions: 37° C., 18 hours, MH agar
[39] = system: Klebsiella pneumoniae PCI-602; assay: Antibacterial test, agar plate dilution method; conditions: 37° C., 18 hours, MH agar
[40] = system: Proteus vulgaris HX-19; assay: Antibacterial test, agar plate dilution method; conditions: 37° C., 18 hours, MH agar
[41] = system: Pseudomonas aeruginosa IFO 3445; assay: Antibacterial test, agar plate dilution method; conditions: 37° C., 18 hours, MH agar
[42] = system: Salmonella typhi 901; assay: Antibacterial test, agar plate dilution method; assay type: cell-based; conditions: 37° C., 18 hours, MH agar
[43] = system: Streptococcus pyogenes Cook; assay: Antibacterial test, agar plate dilution method; conditions: 37° C., 18 hours, MH agar
[44] = system: Escherichia coli K12 C600; assay: Antibacterial test, agar plate dilution method; assay type: cell-based; conditions: 37° C., 18 hours, MH agar
[45] = system: Serratia marcescens IAM1184; assay: Antibacterial test, agar plate dilution method; conditions: 37° C., 18 hours, MH agar
[46] = system: Staphylococcus aureus MS352; assay: Antibacterial test, agar plate dilution method; conditions: 37° C., 18 hours, MH agar
[47] = system: Morganella morganii IFO3848; assay: Antibacterial test, agar plate dilution method; conditions: 37° C., 18 hours, MH agar
[48] = system: Staphylococcus aureus Terajima; assay: Antibacterial test, agar plate dilution method; conditions: 37° C., 18 hours, MH agar
[49] = system: Staphylococcus aureus FDA 209P JC-1; assay: Antibacterial test, agar plate dilution method; conditions: 37° C., 18 hours, MH agar
[50] = system: Enterobacter cloacae 963; assay: Antibacterial test, agar plate dilution method; conditions: 37° C., 18 hours, MH agar
[51] = system: Providencia rettgeri IFO 3850; assay: Antibacterial test, agar plate dilution method; conditions: 37° C., 18 hours, MH agar
[52] = physchem; conditions: amorphous solid storage
[53] = design: species or system male mice of CrjCD(SD) type; conditions: mouse, in vivo, sc, 500 mg/kg
Protocol: Toxicological studies have been carried out using a group of 10 male mice of CrjCD(SD) type weighing from 20 to 23 grams. A solution containing the carbapenem compound (15) of the present invention obtained by Example 6 was administered subcutaneously to the mice and subjected to observations for one week.

[54] = system: C. freundii resistant strains; assay: Sensitivity test against clinical isolates, C. freundii resistant strains; assay type: cell-based; conditions: CFIX/CTX resistant strains
Protocol: Cefixime (CFIX) (50 to >100 μg/ml)
Cefotaxime (CTX) (50 to >100 μg/ml)
The tests were carried out in the same manner as described above Test 1.

[55] = system: P. aeruginosa resistant strains; assay: Sensitivity test against clinical isolates, P. aeruginosa resistant strains; assay type: cell-based; conditions: 54 resistant strains
Protocol: It is noted here that the 54 strains have been chosen because there have been the strains in duplicate with the agents. ______________________________________ Ceftazidime (CAZ) (25 to 100 μg/ml) 21 strains Cefsulodine (CFS) (25 to >100 μg/ml) 23 strains Piperacilin (PIPC) (25 to >100 μg/ml) 15 strains Gentamycin (GM) (25 to >100 μg/ml) 21 strains Amikacin (AMK) (25 to >100 μg/ml) 26 strains Ofloxacin (OFLX) (25 to >100 μg/ml) 4 strains ______________________________________
A minimum inhibitory concentration (MIC) was determined in substantially the same manner as the test procedures II above using the 54 strains of P. aeruginosa having an anti-Pseudomonas resistance.

C[C@@H](O)[C@H]1C(=O)N2C(C(=O)[O-])=C(SC3Cn4cnc[n+]4C3)[C@H](C)[C@H]12 (stereo partly drawn) [crystalline form]
loss of potency on storage [1]: no appreciable loss of potency

NCC(=O)NC(=Cc1ccccc1)C(=O)O [Gl-dh-Ph, glycyl dehydrophenylalanine]
initial velocity of hydrolysis against DHP-I [2]: 17.4 µM/min

(1R, 5S, 6S)-2-[4-pyrazolidinyl]thio-6-[(R)-1-hydroxyethyl]-1-methyl-carbapenem-3-carboxylic acid [Compound 14]
MIC [3]: 0.1 µg/mL
MIC [4]: 0.39 µg/mL
MIC [5]: 0.39 µg/mL
MIC [6]: 0.78 µg/mL
MIC [7]: 0.05 µg/mL
MIC [8]: 0.39 µg/mL
MIC [9]: 0.2 µg/mL
MIC [10]: 1.56 µg/mL
MIC [11]: 1.56 µg/mL
MIC [12]: 0.2 µg/mL
MIC [13]: 0.025 µg/mL
MIC [14]: 0.2 µg/mL
MIC [15]: 1.56 µg/mL
MIC [16]: 1.56 µg/mL
MIC [17]: 1.56 µg/mL
MIC [18]: 0.39 µg/mL
MIC [19]: 0.78 µg/mL
MIC [20]: 1.56 µg/mL
MIC [21]: 1.56 µg/mL
MIC [22]: 1.56 µg/mL
MIC [23]: 0.78 µg/mL
MIC [24]: 0.1 µg/mL
MIC [25]: 0.1 µg/mL
MIC [26]: 1.56 µg/mL
MIC [27]: 1.56 µg/mL
MIC [28]: 0.025 µg/mL
MIC [29]: 0.2 µg/mL
MIC [30]: 0.2 µg/mL
MIC [31]: 0.1 µg/mL
MIC [32]: 0.025 µg/mL
MIC [33]: 0.39 µg/mL
MIC [34]: 0.1 µg/mL
MIC [35]: 0.1 µg/mL
MIC [36]: 0.1 µg/mL
MIC [37]: 0.2 µg/mL
MIC [38]: 0.025 µg/mL
MIC [39]: 0.05 µg/mL
MIC [40]: 0.1 µg/mL
MIC [41]: 0.78 µg/mL
MIC [42]: 0.025 µg/mL
MIC [43]: 0.025 µg/mL
MIC [44]: 0.2 µg/mL
MIC [45]: 0.2 µg/mL
MIC [46]: 0.1 µg/mL
MIC [47]: 0.1 µg/mL
MIC [48]: 0.025 µg/mL
MIC [49]: 0.05 µg/mL
MIC [50]: 0.1 µg/mL
MIC [51]: 0.2 µg/mL

C[C@@H](O)[C@H]1C(=O)N2C(C(=O)[O-])=C(SC3Cn4cnc[n+]4C3)[C@H](C)[C@H]12 (stereo partly drawn) [amorphous form]
remaining at 240 h [52]: ~40%

C[C@@H](O)[C@H]1C(=O)N2C(C(=O)[O-])=C(SC3Cn4cnc[n+]4C3)[C@H](C)[C@H]12 (stereo partly drawn) [Compound 15, 6-[(R)-1-hydroxyethy]-1-methyl-2-(5H-pyrazolo[1,2-a]triazolinium-6-yl) thio-carbapenem-3-carboxylic acid]
survival and abnormal observations [53]: alive without any abnormal observations
test microorganisms whose growth is inhibited ([54]; concentration of 0.78 μg/ml): approximately 98%
test microorganisms whose growth is inhibited ([54]; concentration of 1.56 μg/ml): all the test microorganisms
test microorganisms whose growth is inhibited ([55]; concentration of 12.5 μg/ml): all the test microorganisms
test microorganisms whose growth is inhibited ([55]; concentration of […]): approximately 98%
